This note sets out measurements from paper PMC6753139, “TRIM66 reads unmodified H3R2K4 and H3K56ac to respond to DNA damage in embryonic stem cells” (Nature Communications, 2019).

The target in this assay is T1, TRIM66-MUT968-1160 (Homo sapiens, UniProt O15016, C1161S/C1165S/C1270S/I1224T/L1137T/M1171K/V1273N/Y1166H).
T1 construct: contained residues 968 to 1160 with eight mutated residues; GST (N, cleaved yes); made in house; host or cells: Escherichia coli BL21 (DE3)
T1 sequence (O15016 1103-1295 L1137T/C1161S/C1165S/Y1166H/M1171K/I1224T/C1270S/V1273N): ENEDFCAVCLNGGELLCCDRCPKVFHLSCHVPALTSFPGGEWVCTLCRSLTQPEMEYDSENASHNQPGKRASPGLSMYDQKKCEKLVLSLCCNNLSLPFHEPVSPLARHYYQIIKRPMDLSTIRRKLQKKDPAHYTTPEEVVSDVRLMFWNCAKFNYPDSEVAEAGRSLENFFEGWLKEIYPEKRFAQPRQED
As to the kind of experiment: ITC, crystallization mutant protein. To be noted: 25 °C, 20 mM Tris, 100 mM NaCl, pH 7.5, single measurement. Type of assay: binding. The method, then:
The mutant protein of the TRIM66 PHD-Bromodomain used for the crystallographic study contained residues 968 to 1160 with eight mutated residues (L1002T, C1026S, C1030S, Y1031H, M1036K, I1089T, C1135S, and V1138N). The mutant protein was dialyzed using a buffer containing 20 mM Tris, 100 mM NaCl, and 5 mM DTT at pH 7.5 prior to the crystallographic study. The H3_1-12 peptide was dissolved in the same buffer and adjusted to pH 7.5 with a final concentration of 20 mM. Crystals of the free-state TRIM66-PHD-Bromo mutant were obtained by mixing 8 mg ml^−1 protein with an equal volume of crystallization buffer (30% w/v 5000 MME, 100 mM Tris base/hydrochloric acid pH 8.0, and 200 mM lithium sulfate) using the hanging drop vapor diffusion method at 20 °C. […]
The calorimetric experiments were performed at 25 °C using a MicroCal PEAQ-ITC. […] Peptide concentrations were estimated from the quantitative NMR experiments[73],[74]. […] The ITC data were subsequently analyzed using the MicroCal PEAQ-ITC analysis software. […]
combinational manner (Fig. 1d). To further figure out the binding mode between the TRIM66 PHD-Bromodomain and the united H3(1-15)-(48-57) K56ac peptide, we performed a NMR titration experiment and carefully analyzed the linewidth changes of TRIM66 -GSGS968-1160 (this protein is […]
(Isothermal titration calorimetry measures the heat released or taken up as one component is titrated into another.)

As a reminder, the Kd is the equilibrium constant for the complex coming apart. In the case of `C[C@H](N)C(=O)N[C@@H](CCCNC(=N)N)C(=O)N[C@H](C(=O)N[C@@H](CCCCN)C(=O)N[C@@H](CCC(N)=O)C(=O)N[C@H](C(=O)N[C@@H](C)C(=O)N[C@@H](CCCNC(=N)N)C(=O)N[C@@H](CCCCN)C(=O)N[C@@H](CO)C(=O)N[C@H](C(=O)NCC(=O)O)[C@@H](C)O)[C@@H](C)O)[C@@H](C)O` [H3_1-12], the Kd was determined as 19 ± 0.76 µM.
